Measurements reported in patent US8076489B2, “5-hydroxy-benzothiazole derivatives having beta-2-adrenoreceptor agonist activity” (Novartis AG, priority 2004, dated 2011).
pKi: −log10 of the molar value. Read-outs that look alike come from different tables or passages of the source.

Columns and labels:
[1] = test system: guinea pig tracheal strip; experiment: guinea-pig tracheal strip in vitro assay (duration of action); type: cell-based
Source text: (§1) Compounds of formulae IX are known or may be prepared using procedures that are known or are analogous to those hereinafter described in the Examples. Compounds of formula I in free, salt or solvate form are useful as pharmaceuticals. Accordingly the invention also provides a compound of formula I in free, salt or solvate form for use as a pharmaceutical. The compounds of formula I in free, salt or solvate form, hereinafter referred to alternatively as “agents of the invention”, have good β2-adreno-receptor agonist activity. The β2 agonist activity, onset of action and duration of action of the agents of the invention may be tested using the guinea pig tracheal strip in vitro assay according to the procedure of R. A. Coleman and A. T. Nials, J. Pharmacol. Methods 1989, 21, 71. The binding potency and selectivity for the β2-adrenoreceptor relative to the β1-adrenoreceptor can be measured by a classical filtration binding assay according to the procedure of Current Protocols in Pharmacology (S. J. Enna (editor-in-chief) et al, John Wiley & Son, Inc, 1998), or by cAMP determination in cells expressing β2- or β1-adreno-ceptor, according to the procedure of B. January et al, Brit. J. Pharmacol. 1998, 123, 701.

β2-adrenoreceptor = β2-adrenoreceptor (Homo sapiens, UniProt P07550); experiment: classical filtration binding assay, β2 binding potency
β2-adrenoreceptor, sequence (P07550 whole entry, species assumed): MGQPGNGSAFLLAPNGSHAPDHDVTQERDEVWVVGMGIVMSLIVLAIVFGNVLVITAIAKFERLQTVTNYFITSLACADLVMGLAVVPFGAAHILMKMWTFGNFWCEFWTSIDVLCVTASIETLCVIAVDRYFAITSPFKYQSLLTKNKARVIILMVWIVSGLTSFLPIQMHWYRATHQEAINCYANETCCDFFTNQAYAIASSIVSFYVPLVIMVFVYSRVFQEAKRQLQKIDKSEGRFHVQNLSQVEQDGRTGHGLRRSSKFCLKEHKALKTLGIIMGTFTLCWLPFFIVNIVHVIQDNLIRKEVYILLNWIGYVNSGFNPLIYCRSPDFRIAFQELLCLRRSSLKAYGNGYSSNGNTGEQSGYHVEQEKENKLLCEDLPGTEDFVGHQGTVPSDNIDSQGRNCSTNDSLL
Source text: as §1
Many of the compounds have binding selectivities for the β2-adrenoreceptor relative to the β1-adrenoreceptor from 1.5 to 500.

[2] = classical filtration binding assay, read-out: β2 binding potency, Ki

| SMILES | pKi (β2-adrenoreceptor; [2]) | further results |
| --- | --- | --- |
| CC(C)(Cc1ccccc1)NC[C@H](O)c1cc(O)cc2[nH]c(=O)sc12 [Example 1, (R)-7-[2-(1,1-Dimethyl-2-phenyl-ethylamino)-1-hydroxy-ethyl]-5-hydroxy-3H-benzothiazol-2-one] |  | T(50%) time for inhibition of contraction to decay to 50% of its maximum value ([1]; 100 nM concentration): > 672 min |
| CN(C)c1ccc(CC(C)(C)NC[C@@H](O)c2cc(O)cc3[nH]c(=O)sc23)cc1 [Example 18, (S)-7-{2-[2-(4-Dimethylamino-phenyl)-1,1-dimethyl-ethylamino]-1-hydroxy-ethyl}-5-hydroxy-3H-benzothiazol-2-one] |  | T(50%) time for inhibition of contraction to decay to 50% of its maximum value ([1]; 10 nM concentration): 595 min |
| CC(CCc1ccccc1)NCC(O)c1cc(O)cc2[nH]c(=O)sc12 (stereo not shown) [Example 9] | 7.80 |  |
| CC(NCC(O)c1cc(O)cc2[nH]c(=O)sc12)C1CCCCC1 (stereo not shown) [Example 2] | 7.21 |  |
| O=c1[nH]c2cc(O)cc(C(O)CNC3CCCC3C3CCCC3)c2s1 (stereo not shown) [Example 14] | 7.25 |  |
| O=c1[nH]c2cc(O)cc(C(O)CNC3CCCC3OCc3ccccc3)c2s1 (stereo not shown) [Example 17] | 8.70 |  |
| CCCCOc1ccc(CC(C)(C)NCC(O)c2cc(O)cc3[nH]c(=O)sc23)cc1 (stereo not shown) [Example 4] |  | pKi (β2-adrenoreceptor): 7.57 |
